According to US20250367154A1, “FORMULATIONS FOR PROMOTING HYDRATION AND METHODS OF USE THEREOF” (UNIVERSITY OF FLORIDA RESEARCH FOUNDATION, INCORPORATED, priority 2020, published 2025):
“Also recorded” adds a separate entry of the source.

System: Small intestinal mucosal tissues (ileum and jejunum)
Assay: Ussing chamber sodium flux (net Na absorption, 22Na)
Set-up: species or system Swiss mice
Settings: single free amino acid in solution, FIG. 4
Experimental: Sodium (Na) Absorption Studies: measure net fluid and electrolyte absorption, wherein absorptive processes occur predominantly in the tip of the villi and secretory processes occur in the crypt. Na absorption studies were performed on certain of the amino acids present in 6AA-Hyd. […] Small intestinal mucosal tissues (ileum and jejunum) from 8-week old male Swiss mice were mounted in Ussing chambers containing isotonic Ringer solution, that was bubbled with 95% O2 and 5% CO2 and maintained at 37° C. throughout the experiment. After the tissues were allowed to stabilize, the conductance (G; expressed as mS/cm2) was recorded, and intestinal tissues were paired based on similar conductance. Sodium radioisotope (22Na) was added to either the basolateral or apical side of each tissue pair (Hot). Ringer samples were taken every 15 minutes from the contralateral sides (Cold). Sample 22Na activity was analyzed using a gamma counter, and unidirectional net sodium flux (Jnet; μeq·cm2·h−1) was calculated. [formula] [CPM=count per minute, CPM1=previous sample, CPM2=following sample; Blank=no 22Na added; 9/10=dilution factor for each sample (0.5 mL to 5 mL); 5=chamber volume (5 mL); 4=time factor (15 min to 60 min); 140=sodium concentration; Hot CPM=“Hot” sample activity; Cold CPM=“Cold” sample activity; 10=volume factor for Hot sample (0.1 mL to 1 mL); 0.3=intestinal surface area (cm2)]

Row | SMILES | net sodium (Na) absorption relative to control solution
1 | N[C@@H](CC(=O)O)C(=O)O [aspartic acid] | increase net Na absorption relative to a control; also recorded: significantly higher than that of control solution
2 | CC(C)[C@H](N)C(=O)O [valine] | increase net Na absorption relative to a control; also recorded: significantly higher than that of control solution
3 | N[C@@H](CO)C(=O)O [serine] | increase net Na absorption relative to a control; also recorded: significantly higher than that of control solution
